Values joined by “and” are separate entries in the source; they are usually repeats but may differ in a detail not shown here. Equal entries are not always repeated. “Also recorded” adds a separate entry of the source.
Tested on: patients with advanced solid tumors (SCLC, CRC, mCRPC, NUT carcinoma)
Assay: phase Ib expansion: DLTs, adverse events, exposure
Settings: for DLT / DLT grade / DLT outcome / DLT duration: individual patient events; for patients with DLTs: phase Ib schedule B
[1] = phase Ib CRC, schedule B 2.5 mg
[2] = phase Ib NUT carcinoma, schedule B 2.5 mg
[3] = phase Ib NUT carcinoma, schedule C 6.0/3.0 mg
[4] = phase Ib SCLC, schedule B 2.5 mg
[5] = phase Ib mCRPC, schedule B 2.5 mg
[6] = phase Ib, NUT carcinoma total n = 42

## CNc1nc(-c2nc3ccc(N4CCN(C)CC4)cc3n2Cc2ccccc2)cn2c(C)nnc12 [BI 894999]
Phase Ia DLBCL extension and phase Ib
  most frequent DLT: grade 4 thrombocytopenia
Phase Ib
  discontinuation because of DLT: 3.8%
  discontinuation because of other AEs: 10.1%
  discontinuation because of progressive disease: 78.5%
  dose continuations due to AEs: 13.9%
  dose reductions due to AEs: 16.5%
  median time to first dose reduction: 35.5 days
  patients who died because of AEs: 8.9%
  patients who required a dose reduction: 20.3%
  patients with AEs of any grade: 100%
  patients with treatment-related AEs: 83.5%
  thrombocytopenia leading to dose discontinuation: 2.5%
[1]
  DLT: Dermatitis acneiform; also recorded: Thrombocytopenia
  DLT grade: 3 and 4
  DLT outcome: Not recovered
[2]
  DLT: Decreased platelet count
  DLT duration: 6 days
  DLT grade: 4
  DLT outcome: Not recovered
[3]
  DLT: Pleural effusion; also recorded: Fatigue; also recorded: Diarrhea; also recorded: Decreased platelet count
  DLT duration: 3 days and 16 days and 36 days
  DLT grade: 3 and 4
  DLT outcome: Recovered; also recorded: Not recovered
[4]
  DLT: Laryngeal inflammation; also recorded: Thrombocytopenia; also recorded: Decreased appetite; also recorded: Fatigue; also recorded: Troponin T increased
  DLT duration: 4 days and 9 days and 11 days and 6 days
  DLT grade: 3 and 4
  DLT outcome: Not recovered; also recorded: Recovered
[5]
  DLT: Thrombocytopenia; also recorded: Decreased platelet count; also recorded: Troponin T increased; also recorded: Stomatitis; also recorded: Nausea; also recorded: Decreased appetite; also recorded: Hypophosphatemia
  DLT duration: 40 days and 4 days and 3 days and 8 days and 12 days and 22 days
  DLT grade: 4 and 3
  DLT outcome: Not recovered; also recorded: Recovered
CRC
  patients with DLTs: 2 n
NUT carcinoma
  patients with DLTs: 2 n
SCLC
  patients with DLTs: 3 n
mCRPC
  patients with DLTs: 7 n
Phase Ib, CRC n = 14
  ALT increase, treatment-related AE, any grade: 0 n (%)
  ALT increase, treatment-related AE, grade ≥3: 0 n (%)
  Anemia, treatment-related AE, any grade: 3 (21.4) n (%)
  Anemia, treatment-related AE, grade ≥3: 2 (14.3) n (%)
  Decreased appetite, treatment-related AE, any grade: 5 (35.7) n (%)
  Decreased appetite, treatment-related AE, grade ≥3: 0 n (%)
  Decreased platelet count, treatment-related AE, any grade: 1 (7.1) n (%)
  Decreased platelet count, treatment-related AE, grade ≥3: 1 (7.1) n (%)
  Diarrhea, treatment-related AE, any grade: 6 (42.9) n (%)
  Diarrhea, treatment-related AE, grade ≥3: 2 (14.3) n (%)
  Dysgeusia, treatment-related AE, any grade: 3 (21.4) n (%)
  Dysgeusia, treatment-related AE, grade ≥3: 0 n (%)
  Epistaxis, treatment-related AE, any grade: 1 (7.1) n (%)
  Epistaxis, treatment-related AE, grade ≥3: 0 n (%)
  Fatigue, treatment-related AE, any grade: 4 (28.6) n (%)
  Fatigue, treatment-related AE, grade ≥3: 0 n (%)
  Nausea, treatment-related AE, any grade: 3 (21.4) n (%)
  Nausea, treatment-related AE, grade ≥3: 0 n (%)
  Number of patients with treatment-related AEs: 12 (85.7) n (%)
  Thrombocytopenia, treatment-related AE, any grade: 5 (35.7) n (%)
  Thrombocytopenia, treatment-related AE, grade ≥3: 3 (21.4) n (%)
  Vomiting, treatment-related AE, any grade: 3 (21.4) n (%)
  Vomiting, treatment-related AE, grade ≥3: 2 (14.3) n (%)
  Weight decrease, treatment-related AE, any grade: 1 (7.1) n (%)
  Weight decrease, treatment-related AE, grade ≥3: 0 n (%)
[6]
  ALT increase, treatment-related AE, any grade: 5 (11.9) n (%)
  ALT increase, treatment-related AE, grade ≥3: 0 n (%)
  Anemia, treatment-related AE, any grade: 11 (26.2) n (%)
  Anemia, treatment-related AE, grade ≥3: 6 (14.3) n (%)
  Decreased appetite, treatment-related AE, any grade: 1 (2.4) n (%)
  Decreased appetite, treatment-related AE, grade ≥3: 0 n (%)
  Decreased platelet count, treatment-related AE, any grade: 15 (35.7) n (%)
  Decreased platelet count, treatment-related AE, grade ≥3: 7 (16.7) n (%)
  Diarrhea, treatment-related AE, any grade: 8 (19.0) n (%)
  Diarrhea, treatment-related AE, grade ≥3: 1 (2.4) n (%)
  Dysgeusia, treatment-related AE, any grade: 5 (11.9) n (%)
  Dysgeusia, treatment-related AE, grade ≥3: 0 n (%)
  Epistaxis, treatment-related AE, any grade: 1 (2.4) n (%)
  Epistaxis, treatment-related AE, grade ≥3: 0 n (%)
  Fatigue, treatment-related AE, any grade: 10 (23.8) n (%)
  Fatigue, treatment-related AE, grade ≥3: 4 (9.5) n (%)
  Nausea, treatment-related AE, any grade: 2 (4.8) n (%)
  Nausea, treatment-related AE, grade ≥3: 0 n (%)
  Number of patients with treatment-related AEs: 32 (76.2) n (%)
  Thrombocytopenia, treatment-related AE, any grade: 10 (23.8) n (%)
  Thrombocytopenia, treatment-related AE, grade ≥3: 6 (14.3) n (%)
  Vomiting, treatment-related AE, any grade: 0 n (%)
  Vomiting, treatment-related AE, grade ≥3: 0 n (%)
  Weight decrease, treatment-related AE, any grade: 0 n (%)
  Weight decrease, treatment-related AE, grade ≥3: 0 n (%)
Phase Ib, SCLC n = 12
  ALT increase, treatment-related AE, any grade: 1 (8.3) n (%)
  ALT increase, treatment-related AE, grade ≥3: 0 n (%)
  Anemia, treatment-related AE, any grade: 0 n (%)
  Anemia, treatment-related AE, grade ≥3: 0 n (%)
  Decreased appetite, treatment-related AE, any grade: 2 (16.7) n (%)
  Decreased appetite, treatment-related AE, grade ≥3: 1 (8.3) n (%)
  Decreased platelet count, treatment-related AE, any grade: 1 (8.3) n (%)
  Decreased platelet count, treatment-related AE, grade ≥3: 0 n (%)
  Diarrhea, treatment-related AE, any grade: 3 (25.0) n (%)
  Diarrhea, treatment-related AE, grade ≥3: 0 n (%)
  Dysgeusia, treatment-related AE, any grade: 3 (25.0) n (%)
  Dysgeusia, treatment-related AE, grade ≥3: 0 n (%)
  Epistaxis, treatment-related AE, any grade: 0 n (%)
  Epistaxis, treatment-related AE, grade ≥3: 0 n (%)
  Fatigue, treatment-related AE, any grade: 4 (33.3) n (%)
  Fatigue, treatment-related AE, grade ≥3: 1 (8.3) n (%)
  Nausea, treatment-related AE, any grade: 1 (8.3) n (%)
  Nausea, treatment-related AE, grade ≥3: 0 n (%)
  Number of patients with treatment-related AEs: 11 (91.7) n (%)
  Thrombocytopenia, treatment-related AE, any grade: 5 (41.7) n (%)
  Thrombocytopenia, treatment-related AE, grade ≥3: 3 (25.0) n (%)
  Vomiting, treatment-related AE, any grade: 2 (16.7) n (%)
  Vomiting, treatment-related AE, grade ≥3: 0 n (%)
  Weight decrease, treatment-related AE, any grade: 1 (8.3) n (%)
  Weight decrease, treatment-related AE, grade ≥3: 0 n (%)
Phase Ib, all 79 patients
  anemia, grade ≥3 treatment-related AE: 15.2%
  anemia, treatment-related AE: 22.8%
  decreased appetite, treatment-related AE: 15.2%
  decreased platelet count, grade ≥3 treatment-related AE: 11.4%
  decreased platelet count, treatment-related AE: 25.3%
  diarrhea, treatment-related AE: 29.1%
  dysgeusia, treatment-related AE: 19.0%
  fatigue, grade ≥3 treatment-related AE: 6.3%
  fatigue, treatment-related AE: 27.8%
  nausea, treatment-related AE: 12.7%
  thrombocytopenia, grade ≥3 treatment-related AE: 20.3%
  thrombocytopenia, treatment-related AE: 31.6%
  vomiting, treatment-related AE: 12.7%
Phase Ib, mCRPC n = 11
  ALT increase, treatment-related AE, any grade: 0 n (%)
  ALT increase, treatment-related AE, grade ≥3: 0 n (%)
  Anemia, treatment-related AE, any grade: 4 (36.4) n (%)
  Anemia, treatment-related AE, grade ≥3: 4 (36.4) n (%)
  Decreased appetite, treatment-related AE, any grade: 4 (36.4) n (%)
  Decreased appetite, treatment-related AE, grade ≥3: 1 (9.1) n (%)
  Decreased platelet count, treatment-related AE, any grade: 3 (27.3) n (%)
  Decreased platelet count, treatment-related AE, grade ≥3: 1 (9.1) n (%)
  Diarrhea, treatment-related AE, any grade: 6 (54.5) n (%)
  Diarrhea, treatment-related AE, grade ≥3: 0 n (%)
  Dysgeusia, treatment-related AE, any grade: 4 (36.4) n (%)
  Dysgeusia, treatment-related AE, grade ≥3: 0 n (%)
  Epistaxis, treatment-related AE, any grade: 2 (18.2) n (%)
  Epistaxis, treatment-related AE, grade ≥3: 0 n (%)
  Fatigue, treatment-related AE, any grade: 4 (36.4) n (%)
  Fatigue, treatment-related AE, grade ≥3: 0 n (%)
  Nausea, treatment-related AE, any grade: 4 (36.4) n (%)
  Nausea, treatment-related AE, grade ≥3: 1 (9.1) n (%)
  Number of patients with treatment-related AEs: 11 (100.0) n (%)
  Thrombocytopenia, treatment-related AE, any grade: 5 (45.5) n (%)
  Thrombocytopenia, treatment-related AE, grade ≥3: 4 (36.4) n (%)
  Vomiting, treatment-related AE, any grade: 5 (45.5) n (%)
  Vomiting, treatment-related AE, grade ≥3: 0 n (%)
  Weight decrease, treatment-related AE, any grade: 2 (18.2) n (%)
  Weight decrease, treatment-related AE, grade ≥3: 0 n (%)
Phase Ib, on treatment
  DLT grade 3 decreased appetite: 2.5%
  DLT grade 3 fatigue: 3.8%
  DLT grade 3 increased troponin T: 2.5%
  DLT grade 4 decreased platelet count: 5.1%
  DLT grade 4 thrombocytopenia: 10.1%
Phase Ib, schedule C 6.0/3.0 mg, on-treatment period
  total patients with DLTs: Phase Ib expansion: total patients with DLTs on BI 894999 (schedule C; 6.0/3.0 mg), n = 3
Phase Ib, COVID-19, pneumonia, sepsis, delirium, seizure, dyspnea, pulmonary hemorrhage, acute kidney injury
  AEs leading to death, each: 1.3%
Phase Ib, tumor hemorrhage, seizure, dyspnea, laryngeal inflammation, nausea, stomatitis, bladder dilation, urinary retention, increased ALT, increased AST, decreased platelet count, increased alkaline phosphatase
  other AEs leading to dose discontinuation, each: 1.3%
Solid tumors phase Ib n = 79
  AEs leading to death: 7 (8.9) n (%)
  AEs leading to discontinuation of trial drug: 11 (13.9) n (%)
  AEs leading to dose reduction: 13 (16.5) n (%)
  Any AE: 79 (100) n (%)
  DLT in on-treatment period: 17 (21.5) n (%)
  Treatment-related AEs: 66 (83.5) n (%)
  Treatment-related serious AEs: 17 (21.5) n (%)

From publication PMC12005229, “Final results from the phase Ia/Ib study of the novel bromodomain and extra-terminal domain inhibitor, BI 894999, in patients with advanced solid tumors or diffuse large B-cell lymphoma” (ESMO Open, 2025)
